For orientation: ΔTm means the shift of the melting midpoint relative to a reference.

For assay [1], the target named is T1, PAPD5 (Homo sapiens, UniProt Q8NDF8).
T1 construct: made in house
Description: RNA oligo-adenylation (oligo-extension) inhibition assay with recombinant PAPD5. The class given is biochemical. More on the design: key: minimal activity (0); range from minimal activity (0) to that of compound 1 (+++); range from minimal activity (0) to that of compound 1 (+++); that of compound 1 (+++). As to conditions: qualitative measure of RNA oligo-extension inhibition, relative to compound 1. The procedure: An in vitro RNA polyadenylation assay using recombinant PAPD5, ATP and an oligonucleotide substrate utilized the following phenomenon: ATP utilization by PAPD5 reads out as a decreased luminescence signal produced by luciferase (KinaseGlo, Promega, Madison, WI).
(§1) Qualitative measure of RNA oligo-extension inhibition for the tested compounds, expressed as range from minimal activity (0) to that of compound 1 (+++), and results of a DSF binding assay (shown as shift in temperature at 100 μM of the compound) are shown in the Table 2 below.

Assay [2] has as its target T1, PAPD5. Description: DSF binding assay (shift in temperature). As to conditions: shift in temperature at 100 μM of the compound. The procedure:
as §1

Structures are written as SMILES.

T1 sequence (Q8NDF8 68-698 isoform Q8NDF8-5 limits assumed): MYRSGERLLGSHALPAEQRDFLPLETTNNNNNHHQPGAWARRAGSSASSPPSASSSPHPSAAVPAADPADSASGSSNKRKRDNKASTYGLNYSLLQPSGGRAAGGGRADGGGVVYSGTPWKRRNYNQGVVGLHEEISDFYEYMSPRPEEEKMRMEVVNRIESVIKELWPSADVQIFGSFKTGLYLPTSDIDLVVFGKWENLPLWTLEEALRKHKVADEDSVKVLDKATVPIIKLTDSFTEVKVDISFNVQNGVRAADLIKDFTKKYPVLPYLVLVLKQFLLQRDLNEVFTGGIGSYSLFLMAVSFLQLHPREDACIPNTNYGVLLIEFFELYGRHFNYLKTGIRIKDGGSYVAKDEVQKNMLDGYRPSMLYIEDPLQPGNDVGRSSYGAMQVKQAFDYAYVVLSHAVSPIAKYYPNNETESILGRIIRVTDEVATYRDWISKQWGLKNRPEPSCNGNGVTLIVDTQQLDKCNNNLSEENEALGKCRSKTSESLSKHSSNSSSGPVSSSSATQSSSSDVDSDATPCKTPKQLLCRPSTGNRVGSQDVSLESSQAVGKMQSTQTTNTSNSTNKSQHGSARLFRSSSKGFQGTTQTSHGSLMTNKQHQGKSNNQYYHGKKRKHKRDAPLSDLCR

`CN(C)C(=O)c1cnc2ccc(OC(F)(F)F)cc2c1Nc1ccccc1C(=O)O` [Compound 12A, 2-[[3-(dimethylcarbamoyl)-6-(trifluoromethoxy)-4-quinolyl]amino]benzoic acid]: the “Inhibition of PAPD5 RNA oligo adenylation” value (shortened to “Inhibition”) in assay [1] was “+”. Further, in assay [2], the shift in melting temperature (ΔTm) at 100 µM came out at 6.1 °C.
The corresponding values for `O=C(O)c1ccccc1Nc1c(C(=O)N2CCNCC2)cnc2ccc(OC(F)(F)F)cc12` [Compound 14A, 2-[[3-(piperazine-1-carbonyl)-6-(trifluoromethoxy)-4-quinolyl]amino]benzoic acid] are “++” and 1.7 °C.
For the molecule `CCOC(=O)c1cnc2ccc(Br)cc2c1Nc1ccccc1C(=O)O` [Compound 26A, 2-[(6-bromo-3-ethoxycarbonyl-4-quinolyl)amino]benzoic acid], the “Inhibition” value in assay [1] was “+++”. Further, the ΔTm at 100 µM in assay [2] stood at 11.1 °C.
The corresponding values for `O=C(O)c1ccccc1Nc1c(-c2ncco2)cnc2ccc(OC(F)(F)F)cc12` [Compound 17A, 2-[[3-oxazol-2-yl-6-(trifluoromethoxy)-4-quinolyl]amino]benzoic acid] are “+++” and 8.4 °C.
The corresponding values for `COCCCOc1cc2ncc(C#N)c(Nc3ccccc3C(=O)O)c2cc1OC` [Compound 51A, 2-[[3-cyano-6-methoxy-7-(3-methoxypropoxy)-4-quinolyl]amino]benzoic acid] are “+” and 7.9 °C.
In the same order, the values of `NS(=O)(=O)c1cnc2ccc(OC(F)(F)F)cc2c1Nc1ccccc1C(=O)O` [Compound 16A, 2-[[3-sulfamoyl-6-(trifluoromethoxy)-4-quinolyl]amino]benzoic acid] are “+++” and 9.6 °C.
With `NS(=O)(=O)c1cnc2ccc(Cl)cc2c1Nc1ccccc1C(=O)O` [Compound 63A, 2-[(6-chloro-3-sulfamoyl-4-quinolyl)amino]benzoic acid], the “Inhibition” value in assay [1] is on record as “+++”. The thermal shift (ΔTm) at 100 µM in assay [2] came to 9.3 °C.
The corresponding values for `O=c1c2cnc3ccc(OC(F)(F)F)cc3c2[nH]c2ccnn12` [Compound 30A, 6-(trifluoromethoxy)-14,15,16,17-tetrazatetracycloheptadeca-(6),1(7),2(8),3(15),4(9),5(16),10-heptaen-12-one] are 0 and 1.7 °C.
The corresponding values for `O=C(O)c1c(O)cccc1Nc1c(-c2ncco2)cnc2ccc(Cl)cc12` [Compound 82A, 2-[(6-chloro-3-oxazol-2-yl-4-quinolyl)amino]-6-hydroxy-benzoic acid] are “+++” and 13.5 °C.
The corresponding values for `CCOC(=O)c1cnc2ccc(OC(F)(F)F)cc2c1Nc1scnc1C(=O)OCC` [Compound 33A, ethyl 5-[[3-ethoxycarbonyl-6-(trifluoromethoxy)-4-quinolyl]amino]thiazole-4-carboxylate] are 0 and 0.7 °C.
In the case of `O=C(O)c1cccn2c(=O)c3cnc4ccc(OC(F)(F)F)cc4c3nc12` [Compound 27A, 14-oxo-7-(trifluoromethoxy)-17,18,19-triazatetracyclooctadeca-(4),1(8),2(7),3(9),5(10),6(17),11,13(18)-octaene-8-carboxylic acid], the “Inhibition” value in assay [1] is 0. Further, the shift in melting temperature (ΔTm) at 100 µM in assay [2] came out at 2.8 °C.

The values are drawn from patent US12486234B2, “PAPD5 inhibitors and methods of use thereof” (Children's Medical Center Corporation, priority 2019, dated 2025).
